# According to paper PMC9516332 (Frontiers in Oncology, 2022):
# Where two headings read alike, the source gives them in different places.
# Tested on: 134 cancer cell lines
# Assay: Cell viability assay (ATPlite, 72 hours), IC50 on cancer cell line panel
smiles,measurement,setting,value
CCCS(=O)(=O)Nc1ccc(F)c(C(=O)c2c[nH]c3ncc(-c4ccc(Cl)cc4)cc23)c1F [vemurafenib],IC50,"Homo sapiens, MOLT-4, read-out: IC50 in cell proliferation assay, MOLT-4 cell line",30.6 µM
same,IC50,"Homo sapiens, MV4-11, read-out: IC50 in cell proliferation assay, MV4-11 cell line (FLT3 ITD)",31.2 µM
same,IC50,"Homo sapiens, MeWo, read-out: IC50 in cell proliferation assay, MeWo cell line",> 31.6 µM
same,IC50,"Homo sapiens, NCCIT, read-out: IC50 in cell proliferation assay, NCC-IT cell line",25.5 µM
same,IC50,"Homo sapiens, NCI-H82, read-out: IC50 in cell proliferation assay, cell line NCI-H82",22.8 µM
same,IC50,"Homo sapiens, NCI-H460, read-out: IC50 in cell proliferation assay, NCI-H460 cell line",26.9 µM
same,IC50,"Homo sapiens, NCI-H661, read-out: IC50 in cell proliferation assay, NCI-H661 cell line",> 31.6 µM
same,IC50,"Homo sapiens, NCI-H716, read-out: IC50 in cell proliferation assay, cell line NCI-H716 (FGFR2-COL14A1)",> 31.6 µM
same,IC50,"Homo sapiens, NCI-H1650, read-out: IC50 in cell proliferation assay, NCI-H1650 cell line (EGFR exon19del)",> 31.6 µM
same,IC50,"Homo sapiens, NCI-H1975, read-out: IC50 in cell proliferation assay, NCI-H1975 cell line (EGFR p.L858R + p.T790M)",> 31.6 µM
same,IC50,"Homo sapiens, NCI-H2228, read-out: IC50 in cell proliferation assay, NCI-H2228 cell line (EML4-ALK)",> 31.6 µM
same,IC50,"Homo sapiens, OVCAR-3, read-out: IC50 in cell proliferation assay, cell line OVCAR-3",> 31.6 µM
same,IC50,"Homo sapiens, PFSK-1, read-out: IC50 in cell proliferation assay, cell line PFSK-1",> 31.6 µM
same,IC50,"Homo sapiens, RL95-2, read-out: IC50 in cell proliferation assay, cell line RL95-2 (EGFR p.A289V)",> 31.6 µM
same,IC50,"Homo sapiens, RPMI-7951, read-out: IC50 in cell proliferation assay, cell line RPMI-7951 (BRAF p.V600E)",15.7 µM
same,IC50,"Homo sapiens, RS4-11, read-out: IC50 in cell proliferation assay, cell line RS4;11",> 31.6 µM
same,IC50,"Homo sapiens, Rec1, read-out: IC50 in cell proliferation assay, cell line REC-1",8.15 µM
same,IC50,"Homo sapiens, SHP77, read-out: IC50 in cell proliferation assay, cell line SHP-77",> 31.6 µM
same,IC50,"Homo sapiens, SK-BR-3, read-out: IC50 in cell proliferation assay, cell line SK-BR-3 (ERBB2 amplification)",> 31.6 µM
same,IC50,"Homo sapiens, SK-N-AS, read-out: IC50 in cell proliferation assay, cell line SK-N-AS",> 31.6 µM
same,IC50,"Homo sapiens, SK-N-FI, read-out: IC50 in cell proliferation assay, cell line SK-N-FI",> 31.6 µM
same,IC50,"Homo sapiens, SK-N-MC, read-out: IC50 in cell proliferation assay, cell line SK-N-MC",> 31.6 µM
same,IC50,"Homo sapiens, SK-N-SH, read-out: IC50 in cell proliferation assay, cell line SK-N-SH (ALK p.F1174L)",> 31.6 µM
same,IC50,"Homo sapiens, SNU-5, read-out: IC50 in cell proliferation assay, cell line SNU-5 (MET amplification)",31.4 µM
same,IC50,"Homo sapiens, SNU-16, read-out: IC50 in cell proliferation assay, cell line SNU-16 (FGFR2 amplification)",> 31.6 µM
same,IC50,"Homo sapiens, SNU-C2B, read-out: IC50 in cell proliferation assay, cell line SNU-C2B (EGFR p.R165Q)",> 31.6 µM
same,IC50,"Homo sapiens, SU-DHL-1, read-out: IC50 in cell proliferation assay, cell line SU-DHL-1 (NPM1-ALK)",23.5 µM
same,IC50,"Homo sapiens, SU-DHL-6, read-out: IC50 in cell proliferation assay, cell line SU-DHL-6",> 31.6 µM
same,IC50,"Homo sapiens, SUP-T1, read-out: IC50 in cell proliferation assay, cell line SUP-T1",> 31.6 µM
same,IC50,"Homo sapiens, SW48, read-out: IC50 in cell proliferation assay, cell line SW48 (EGFR p.G719S)",> 31.6 µM
same,IC50,"Homo sapiens, SW480, read-out: IC50 in cell proliferation assay, cell line SW480",> 31.6 µM
same,IC50,"Homo sapiens, SW626, read-out: IC50 in cell proliferation assay, cell line SW626",> 31.6 µM
same,IC50,"Homo sapiens, SW780, read-out: IC50 in cell proliferation assay, cell line SW780 (FGFR3-BAIAP2L1)",> 31.6 µM
same,IC50,"Homo sapiens, SW837, read-out: IC50 in cell proliferation assay, cell line SW837",> 31.6 µM
same,IC50,"Homo sapiens, SW872, read-out: IC50 in cell proliferation assay, cell line SW872 (BRAF p.V600E)",1.15 µM
same,IC50,"Homo sapiens, SW900, read-out: IC50 in cell proliferation assay, cell line SW900",26.7 µM
same,IC50,"Homo sapiens, SW948, read-out: IC50 in cell proliferation assay, cell line SW948",> 31.6 µM
same,IC50,"Homo sapiens, SW982, read-out: IC50 in cell proliferation assay, cell line SW982 (BRAF p.V600E)",22.3 µM
same,IC50,"Homo sapiens, SW-620, read-out: IC50 in cell proliferation assay, cell line SW620",> 31.6 µM
same,IC50,"Homo sapiens, T98G, read-out: IC50 in cell proliferation assay, cell line T98G",19.1 µM
same,IC50,"Homo sapiens, TCC-SUP, read-out: IC50 in cell proliferation assay, cell line TCCSUP",> 31.6 µM
same,IC50,"Homo sapiens, THP-1, read-out: IC50 in cell proliferation assay, cell line THP-1",> 31.6 µM
same,IC50,"Homo sapiens, U2OS, read-out: IC50 in cell proliferation assay, cell line U2OS",> 31.6 µM
same,IC50,"Homo sapiens, U-87 MG, read-out: IC50 in cell proliferation assay, cell line U-87MG ATCC",> 31.6 µM
same,IC50,"Homo sapiens, U-118-MG, read-out: IC50 in cell proliferation assay, cell line U-118MG",> 31.6 µM
same,IC50,"Homo sapiens, UMUC3, read-out: IC50 in cell proliferation assay, cell line UM-UC-3",> 31.6 µM
same,IC50,"Hs766T, read-out: IC50 in cell proliferation assay, Hs 766T cell line",> 31.6 µM
same,IC50,"L-82, read-out: IC50 in cell proliferation assay, L-82 cell line (NPM1-ALK)",26.8 µM
same,IC50,"Rh30, read-out: IC50 in cell proliferation assay, cell line Rh30",> 31.6 µM
same,IC50,"read-out: IC50 in cell proliferation assay, 11-18 cell line (EGFR p.L858R)",> 31.6 µM
same,IC50,"read-out: IC50 in cell proliferation assay, Hs 852.T cell line",> 31.6 µM
same,IC50,"read-out: IC50 in cell proliferation assay, JAR cell line",14.7 µM
same,IC50,"read-out: IC50 in cell proliferation assay, cell line 5637",25.1 µM
same,IC50,"read-out: IC50 in cell proliferation assay, cell line A-388",> 31.6 µM
same,IC50,"read-out: IC50 in cell proliferation assay, cell line DB",24.5 µM
same,IC50,"read-out: IC50 in cell proliferation assay, cell line DEL (NPM1-ALK)",> 31.6 µM
same,IC50,"read-out: IC50 in cell proliferation assay, cell line ES-2 (BRAF p.V600E)",2.33 µM
same,IC50,"read-out: IC50 in cell proliferation assay, cell line PA-1",15.7 µM
same,IC50,"read-out: IC50 in cell proliferation assay, cell line PC-3",> 31.6 µM
same,IC50,"read-out: IC50 in cell proliferation assay, cell line RD",> 31.6 µM
same,IC50,"read-out: IC50 in cell proliferation assay, cell line RKO (BRAF p.V600E)",3.08 µM
same,IC50,"read-out: IC50 in cell proliferation assay, cell line RL",24.8 µM
same,IC50,"read-out: IC50 in cell proliferation assay, cell line RT-4 (FGFR3-TACC3)",> 31.6 µM
same,IC50,"read-out: IC50 in cell proliferation assay, cell line T24",30.7 µM
same,IC50,"read-out: IC50 in cell proliferation assay, cell line TT (RET p.C634W)",> 31.6 µM
same,IC50,"read-out: IC50 in cell proliferation assay, cell line VA-ES-BJ",> 31.6 µM
